Structures are written as SMILES. Activity calls are given as the source filed them. The rule behind the calls is not given here. Numbered stars: 1 amine (or outer) side, 2 acyl side, 3 side chain; on linkers, the order of the positions; unused ones are H or OH. Square brackets hold non-standard residues; d marks the D form. Peptide text beside a SMILES is read from it. * marks the point of attachment. X1 = N#Cc1cnc2ccc(-c3c(-c4ccc(F)c(Cl)c4)ncn3CCOCN*)nn12; C18 diacid = O=C(O)CCCCCCCCCCCCCCCCC(=O)*; γGlu = O=C(O)[C@H](CCC(=O)[*:2])N[*:1]; PABC = O=C(OCc1ccc(N[*:1])cc1)[*:2]; AEEA = NCCOCCOCC(=O)O

Results on two compounds are retold here after ChEMBL document CHEMBL5260852, “Long-Acting Tumor-Activated Prodrug of a TGFβR Inhibitor” (J Med Chem, 2021).

Data set [1] in a line: Cmax in C57BL/6 mouse heart xenografted mouse MC38 cells at 1.88 mg/kg,iv and measured after 72 hrs by LC-MS/MS analysis. The format is ADME, organism-based, MC-38. Details: time 72 hrs, dose 1.88 mg/kg, route iv.
The nature of data set [2]: Ratio of AUC in heart to blood in C57BL/6 mouse xenografted mouse MC38 cells at 1.88 mg/kg,iv and measured after 72 hrs by LC-MS/MS analysis. The format is ADME, organism-based. As to conditions: read-out: Ratio AUC.
Data set [3] in a line: AUC (0 to 24 hrs) in rat at 3 mg/kg,iv for 3 months. The format is ADME, organism-based. Details: time 3 months, dose 3 mg/kg, route iv. As to conditions: in vivo.
Data set [4] in a line: Tmax in C57BL/6 mouse tumor xenografted mouse MC38 cells at 1.88 mg/kg,iv and measured after 72 hrs by LC-MS/MS analysis. It is filed as ADME, organism-based, Neoplasm, MC-38.
A short description of data set [5]: Cmax in C57BL/6 mouse xenografted with mouse MC38 cells at 3.75 mg/kg,iv and measured after 4 weeks by LC-MS/MS analysis. Details: dose 3.75 mg/kg, time 4 weeks, route iv. Particulars: in vivo. It is filed as ADME, organism-based, MC-38.
A short description of data set [6]: Cmax in C57BL/6 mouse blood xenografted mouse MC38 cells at 1.88 mg/kg,iv and measured after 72 hrs by LC-MS/MS analysis. The format is ADME, organism-based, MC-38. On the set-up: time 72 hrs, dose 1.88 mg/kg, route iv.
Data set [7] is described as follows: AUC (0 to 72 hrs) in C57BL/6 mouse tumor xenografted mouse MC38 cells at 1.88 mg/kg,iv and measured after 72 hrs by LC-MS/MS analysis. It is filed as ADME, organism-based, Neoplasm, MC-38. Details: dose 1.88 mg/kg, time 72 hrs, route iv.
A short description of data set [8]: Cmax in C57BL/6 mouse tumor xenografted mouse MC38 cells at 1.88 mg/kg,iv and measured after 72 hrs by LC-MS/MS analysis. It is filed as ADME, organism-based, Neoplasm, MC-38. Details: dose 1.88 mg/kg, time 72 hrs, route iv.
A short description of data set [9]: Ratio of AUC in tumor to heart in C57BL/6 mouse xenografted mouse MC38 cells at 1.88 mg/kg,iv and measured after 72 hrs by LC-MS/MS analysis. The format is ADME, organism-based. Particulars: in vivo.
The nature of data set [10]: Tmax in C57BL/6 mouse blood xenografted mouse MC38 cells at 1.88 mg/kg,iv and measured after 72 hrs by LC-MS/MS analysis. It is filed as ADME, organism-based, MC-38.
Data set [11] can be described thus: Ratio of AUC in tumor to blood in C57BL/6 mouse xenografted mouse MC38 cells at 1.88 mg/kg,iv and measured after 72 hrs by LC-MS/MS analysis. The format is ADME, organism-based. As to conditions: read-out: Ratio AUC.
Data set [12] can be described thus: Tmax in C57BL/6 mouse heart xenografted mouse MC38 cells at 1.88 mg/kg,iv and measured after 72 hrs by LC-MS/MS analysis. The format is ADME, organism-based, MC-38.
Data set [13] is described as follows: AUC (0 to 72 hrs) in C57BL/6 mouse heart xenografted mouse MC38 cells at 1.88 mg/kg,iv and measured after 72 hrs by LC-MS/MS analysis. The format is ADME, organism-based, MC-38. On the set-up: time 72 hrs, dose 1.88 mg/kg, route iv.
Data set [14] in a line: AUC (0 to 72 hrs) in C57BL/6 mouse xenografted with mouse MC38 cells at 3.75 mg/kg,iv and measured after 4 weeks by LC-MS/MS analysis. The format is ADME, organism-based, MC-38. Details: dose 3.75 mg/kg, time 4 weeks, route iv. Particulars: in vivo.
A short description of data set [15]: AUC (0 to 72 hrs) in C57BL/6 mouse blood xenografted mouse MC38 cells at 1.88 mg/kg,iv and measured after 72 hrs by LC-MS/MS analysis. The format is ADME, organism-based, MC-38. On the set-up: dose 1.88 mg/kg, time 72 hrs, route iv.
Data set [16] is described as follows: Prodrug conversion in blood of C57BL/6 mouse xenografted mouse MC38 cells assessed as BMS-986260 ratio of AUC in tumor to blood at 8 mg/kg,iv and measured after 72 hrs by LC-MS/MS analysis. Particulars: tumour. It is filed as ADME, organism-based, MC-38.
Data set [17] can be described thus: Stability in mouse plasma assessed as parent compound remaining after 24 hrs by HPLC-MS analysis. It is filed as ADME, cell-free. As to conditions: read-out: Stability.
Another data set has as its system MC-38. In words: Antitumor activity against mouse MC38 cells allografted in C57BL/6 mouse assessed as reduction in tumor volume at 40 to 80 mg/kg, iv for 4 weeks in presence of anti-PD-1 antibody. It is filed as functional, organism-based. As to conditions: dose 40-80 mg/kg.
Data set [18] is described as follows: Toxicity in C57BL/6 mouse at 80 mg/kg,iv. The format is organism-based. As to conditions: in vivo.
The nature of data set [19]: Prodrug conversion in heart of C57BL/6 mouse xenografted mouse MC38 cells assessed as BMS-986260 AUC (0 to 72 hrs) at 8 mg/kg,iv and measured after 72 hrs by LC-MS/MS analysis. It is filed as ADME, organism-based, MC-38. Details: time 72 hrs, dose 8 mg/kg, route iv. As to conditions: in vivo.
Data set [20] in a line: Prodrug conversion in heart of C57BL/6 mouse xenografted mouse MC38 cells assessed as BMS-986260 Cmax at 8 mg/kg,iv and measured after 72 hrs by LC-MS/MS analysis. The format is ADME, organism-based, MC-38. On the set-up: dose 8 mg/kg, time 72 hrs, route iv. As to conditions: in vivo.
Data set [21] can be described thus: Prodrug conversion in blood of C57BL/6 mouse xenografted mouse MC38 cells assessed as BMS-986260 AUC (0 to 72 hrs) at 8 mg/kg,iv and measured after 72 hrs by LC-MS/MS analysis. It is filed as ADME, organism-based, MC-38. Details: time 72 hrs, dose 8 mg/kg, route iv. As to conditions: in vivo.
Data set [22] is described as follows: AUC (0 to 72 hrs) in rat at 40 mg/kg,iv for 3 months. It is filed as ADME, organism-based. Details: time 3 months, dose 40 mg/kg, route iv. As to conditions: in vivo.
A short description of data set [23]: Prodrug conversion in blood of C57BL/6 mouse xenografted mouse MC38 cells assessed as BMS-986260 Cmax at 8 mg/kg,iv and measured after 72 hrs by LC-MS/MS analysis. The format is ADME, organism-based, MC-38. Details: dose 8 mg/kg, time 72 hrs, route iv. As to conditions: in vivo.
Data set [24] can be described thus: Prodrug conversion in tumor of C57BL/6 mouse xenografted mouse MC38 cells assessed as BMS-986260 Cmax at 8 mg/kg,iv and measured after 72 hrs by LC-MS/MS analysis. The format is ADME, organism-based, Neoplasm, MC-38. On the set-up: dose 8 mg/kg, time 72 hrs, route iv. Particulars: in vivo.
A short description of data set [25]: Stability in rat plasma assessed as parent compound remaining after 24 hrs by HPLC-MS analysis. The format is ADME, cell-free. As to conditions: read-out: Stability.
Data set [26] is described as follows: Drug concentration in C57BL/6 mouse plasma at 6 mg/kg,iv and measured after 24 hrs by LC-MS/MS analysis. The format is ADME, organism-based.
Data set [27] in a line: Toxicity in rat assessed as mortality at 3 mg/kg,iv for 3 months. It is filed as organism-based. As to conditions: in vivo, 2190 h.
Data set [28] is described as follows: Prodrug conversion in tumor of C57BL/6 mouse xenografted mouse MC38 cells assessed as BMS-986260 Tmax at 8 mg/kg,iv and measured after 72 hrs by LC-MS/MS analysis. It is filed as ADME, organism-based, Neoplasm, MC-38. As to conditions: in vivo.
Data set [29] can be described thus: Prodrug conversion in blood of C57BL/6 mouse xenografted mouse MC38 cells assessed as BMS-986260 ratio of AUC in tumor to heart at 8 mg/kg,iv and measured after 72 hrs by LC-MS/MS analysis. Particulars: in vivo. It is filed as ADME, organism-based, MC-38.
A short description of data set [30]: Prodrug conversion in blood of C57BL/6 mouse xenografted mouse MC38 cells assessed as BMS-986260 Tmax at 8 mg/kg,iv and measured after 72 hrs by LC-MS/MS analysis. It is filed as ADME, organism-based, MC-38. Particulars: in vivo.
A short description of data set [31]: AUC (0 to 72 hrs) in rat at 3 mg/kg,iv for 3 months. The format is ADME, organism-based. On the set-up: dose 3 mg/kg, time 3 months, route iv. As to conditions: in vivo.
Data set [32] in a line: Prodrug conversion in tumor of C57BL/6 mouse xenografted mouse MC38 cells assessed as BMS-986260 AUC (0 to 72 hrs) at 8 mg/kg,iv and measured after 72 hrs by LC-MS/MS analysis. Details: time 72 hrs, dose 8 mg/kg, route iv. Particulars: in vivo. The format is ADME, organism-based, Neoplasm, MC-38.
The nature of data set [33]: Prodrug conversion in heart of C57BL/6 mouse xenografted mouse MC38 cells assessed as BMS-986260 Tmax at 8 mg/kg,iv and measured after 72 hrs by LC-MS/MS analysis. It is filed as ADME, organism-based, MC-38. As to conditions: in vivo.
Data set [34] in a line: AUC in C57BL/6 mouse plasma at 6 mg/kg,iv and measured upto 24 hrs by LC-MS/MS analysis. It is filed as ADME, organism-based. On the set-up: dose 6 mg/kg, time < 24 hrs, route iv.
A short description of data set [35]: Prodrug conversion in C57BL/6 mouse xenografted mouse MC38 cells assessed as BMS-986260 ratio of AUC in heart to blood at 8 mg/kg,iv and measured after 72 hrs by LC-MS/MS analysis. Particulars: other tissue. The format is ADME, organism-based, MC-38.

As for `N#Cc1cnc2ccc(-c3c(-c4ccc(F)c(Cl)c4)ncn3CCO)nn12`, the highest concentration (Cmax) in [1] came out at 2500 nM; in data set [5], 1500 nM; in data set [6] it was 1400 nM; in [8] it was 1500 nM. In addition, the values for the Kp at 72 h in data set [2] and in data set [11] were 1.7 and 1.1, respectively. The compound also returned an AUC(0-t) at 2190 h in data set [3] of 27 µM·h. Further, the Tmax in data set [4], in data set [10] and in data set [12] was 1 h in each case. Further, the area under the curve AUC(0-t) at 72 h in data set [7] is 6.1 µM·h; in data set [13], 10 µM·h; in data set [15], 5.8 µM·h. Moreover, the “Ratio AUC” value in [9] is listed as 0.61. For the same compound, the AUC(0-t) at 672 h in data set [14] was 39 µM·h.

As to `CC(C)C[C@H](NC(=O)COCCOCCNC(=O)COCCOCCNC(=O)CC[C@H](NC(=O)CC[C@H](NC(=O)CCCCCCCCCCCCCCCCC(=O)O)C(=O)O)C(=O)O)C(=O)N[C@@H](CO)C(=O)NCC(=O)N[C@@H](CCCCN)C(=O)Nc1ccc(COC(=O)NCOCCn2cnc(-c3ccc(F)c(Cl)c3)c2-c2ccc3ncc(C#N)n3n2)cc1` ({C18 diacid-γGlu-γGlu-AEEA-AEEA}-LSGK[PABC]-X1), the “Ratio AUC” value in data set [16] worked out at 3.1; in data set [29] it was 1.8; in [35] it was 1.7. Further, the remaining at 24 h in [17] worked out at 92%; in [25], 87%. In the data set with MC-38, the result was Active. The Activity result in data set [18] and in [27] was “Non-Toxic” in each case. Also, the values for the AUC in data set [19], in data set [21] and in [32] were 6.7 µM·h, 3.9 µM·h and 12 µM·h, respectively. For the same compound, the AUC(0-t) at 2190 h in data set [3] was found to be 27 µM·h; in data set [22] it was 81 µM·h; in data set [31], 15 µM·h. Also, the Cmax was determined as 200 nM in data set [20], 120 nM in data set [23] and 310 nM in data set [24]. In addition, the concentration at 24 h in [26] came out at 5200 nM. Also, the values for the Tmax in data set [28], in data set [30] and in data set [33] were 1 h, 1 h and 8 h, respectively. Further, the AUC at 24 h in data set [34] amounted to 270 µM·h.

Broadly, the Cmax is the highest concentration seen after dosing. One may read the AUC(0-t) as exposure summed from dosing to a finite time, without extrapolation to infinity. Lower therefore signals low exposure. One may read the Tmax as the time at which the peak concentration occurs. Usually AUC stands for concentration integrated over time.
